{
  "source": "paper PMC12053642",
  "about": "“Oral PRI-002 treatment in patients with MCI or mild AD: a randomized, double-blind phase 1b trial” (Nature Communications, 2025)",
  "key": {"[1]": {"assay": "Pharmacokinetics of PRI-002 in plasma", "details": "300 mg q.d. oral; for AUC(0-t): AUC 0-4 hours", "protocol": "The effect on biomarker was assessed during baseline and after 28 days of medication. CSF collection and blood sampling were performed to determine PRI-002 concentration, which was conducted by Nuvisan (Neu-Ulm, Germany) and to exploratively estimate the effect of PRI-002 on the modulation of Aβ 1-40, Aβ 1-42, Aβ oligomers, total tau (t-tau), and phospho tau (p-tau). Aβ 1-40, Aβ 1-42, t-tau and p-tau181 were measured by immunoassay, using the Lumipulse platform (Fujirebio, Tokyo, Japan) and Aβ oligomers concentrations were determined using sFIDA technology[31]–[33] by attyloid GmbH (Düsseldorf, Germany). The effect of PRI-002 on cognitive and functional performance was measured by repetitively applying the CERAD+ battery and the Clinical Dementia Rating (CDR) at baseline, at Day 28 and additionally at the last visit (Day 56).\nSecondary endpoints included the evaluation of pharmacokinetic characteristics of PRI-002 by determination of maximum plasma concentration (Cmax), time to reach maximum plasma concentration (Tmax), half-life (t1/2) calculated from PRI-002 plasma concentrations; and the determination of CSF concentrations of PRI-002.\n4 Pharmacokinetic sampling X X\n1 Heart rate and blood pressure: Day 1: at pre-dose and 2 hours±15 minutes; Day 14 and 28: at pre-\ndose; 2 ECG Day 1: at pre-dose and 2 hours ± 15 minutes; Day 14 and 28: at pre-dose; 3 Safety\nMRI was scheduled at screening and within three days after Day 28 and Day 56;4 Pharmacokinetic\nsampling Day 1 and Day 28: at pre-dose, 30 minutes ± 15 minutes, 1 hour ± 15 minutes, 2\nhours ± 15 minutes, and 4 hours ± 15 minutes."}, "[2]": {"system": "patients with MCI or mild dementia due to AD", "assay": "Adverse events assessment (AE/SAE, MedDRA 23.0), phase 1b trial", "details": "300 mg q.d. oral 28 d", "protocol": "During treatment, the frequency of study visits at the trial site was 14 days (Day 1, day 14, Day 28). A last assessment took place at Day 56. At Day 7 and Day 21 additional phone contacts for safety assessments were performed.\nFor safety assessment during baseline, at Day 14, 28, and 56, laboratory parameters and vital signs were measured, a physical exam was performed, and ECGs were recorded per protocol. […] In addition, nature, frequency, severity, and timing of AEs and SAEs were recorded at day 14, 28, and 56. Standardized AE reports were provided and analysed by the Data Safety and Monitoring Board (DSMB).\nPrimary endpoints included nature, frequency, severity, and timing of AEs and SAEs; changes in routine laboratory values, ECG, MRI, EEG, and vital signs."}, "[3]": {"details": "plasma, Day 1 (n=9), Max, MCI/mild AD patients"}, "[4]": {"details": "plasma, Day 1 (n=9), Mean ± SD, MCI/mild AD patients"}, "[5]": {"details": "plasma, Day 1 (n=9), Min, MCI/mild AD patients"}, "[6]": {"details": "plasma, Day 28 (n=8), Max, MCI/mild AD patients"}},
  "note": "Several values for one entry are separate records, joined by “and”; a condition that tells them apart may be missing. Equal entries are not always repeated. Entries after “also recorded” stand apart in the source; their conditions may differ. Square brackets hold non-standard residues; d marks the D form. Peptide text beside a SMILES is read from it.",
  "data": [
    {"molecule": "CC(C)C[C@@H](NC(=O)[C@H](NC(=O)[C@H]1CCCN1)[C@H](C)O)C(=O)N[C@H](Cc1c[nH]cn1)C(=O)N[C@@H](C(=O)N[C@H](Cc1c[nH]cn1)C(=O)N[C@H](CC(N)=O)C(=O)N[C@H](CCCNC(=N)N)C(=O)N[C@H](CCCNC(=N)N)C(=O)N[C@H](CCCNC(=N)N)C(=O)N[C@H](CCCNC(=N)N)C(=O)N[C@H](CCCNC(=N)N)C(N)=O)[C@H](C)O", "note": "[PRI-002] (H-[dP][dT][dL][dH][dT][dH][dN][dR][dR][dR][dR][dR]-NH2; N-terminus and C-terminus assumed)", "values": [
      {"measurement": "T max, individual patients", "setting": "[1]; Day 28, one line per patient", "value": "0.50 h (6×) and 4.00 h and 2.00 h"},
      {"measurement": "PRI-002 plasma level, individual patients", "setting": "[1]; day 1, 2 h, one line per patient", "value": 0.878},
      {"measurement": "PRI-002 plasma level, individual patients", "setting": "[1]; day 1, Pre-dose, one line per patient", "value": 0, "unit": "ng/mL"},
      {"measurement": "AUC(0-t)", "setting": "[1]; human, plasma, po, 300 mg, plasma, Day 1 (n=9), Mean ± SD, MCI/mild AD patients", "value": "9.98 ± 7.46", "unit": "ng·h/mL"},
      {"measurement": "AUC(0-t)", "setting": "[1]; human, plasma, po, 300 mg, plasma, Day 28 (n=8), Mean ± SD, MCI/mild AD patients", "value": "26.8 ± 23.8", "unit": "ng·h/mL"},
      {"measurement": "AUC(0-t)", "setting": "[1]; human, plasma, po, 300 mg, plasma, Day 28 (n=8), Median, MCI/mild AD patients", "value": 20.4, "unit": "ng·h/mL"},
      {"measurement": "Cmax", "setting": "[1]; human, plasma, po, 300 mg, Cmax, plasma, Day 1 (n=9), Mean ± SD, MCI/mild AD patients", "value": "4.46 ± 3.71", "unit": "ng/mL"},
      {"measurement": "Cmax", "setting": "[1]; human, plasma, po, 300 mg, Cmax, plasma, Day 1 (n=9), Median, MCI/mild AD patients", "value": 3.03, "unit": "ng/mL"},
      {"measurement": "Cmax", "setting": "[1]; human, plasma, po, 300 mg, Cmax, plasma, Day 28 (n=8), Mean ± SD, MCI/mild AD patients", "value": "12.6 ± 13.2", "unit": "ng/mL"},
      {"measurement": "Cmax", "setting": "[1]; human, plasma, po, 300 mg, Cmax, plasma, Day 28 (n=8), Median, MCI/mild AD patients", "value": 6.2, "unit": "ng/mL"},
      {"measurement": "level at 0.5 h", "setting": "[1]; human, plasma, po, 300 mg, PRI-002 plasma level, Mean, Day 1, 0.5 h, n=9, MCI/mild AD patients", "value": 3.1, "unit": "ng/mL"},
      {"measurement": "level at 1 h", "setting": "[1]; human, plasma, po, 300 mg, PRI-002 plasma level, Mean, Day 1, 1 h, n=9, MCI/mild AD patients", "value": 3.5, "unit": "ng/mL"},
      {"measurement": "level at 2 h", "setting": "[1]; human, plasma, po, 300 mg, PRI-002 plasma level, Mean, Day 1, 2 h, n=9, MCI/mild AD patients", "value": 2.6, "unit": "ng/mL"},
      {"measurement": "level at 4 h", "setting": "[1]; human, plasma, po, 300 mg, PRI-002 plasma level, Mean, Day 1, 4 h, n=9, MCI/mild AD patients", "value": 1.9, "unit": "ng/mL"},
      {"measurement": "level at 0 h", "setting": "[1]; human, plasma, po, 300 mg, PRI-002 plasma level, Mean, Day 28, 0 h, n=8, MCI/mild AD patients", "value": 2, "unit": "ng/mL"},
      {"measurement": "level at 0.5 h", "setting": "[1]; human, plasma, po, 300 mg, PRI-002 plasma level, Mean, Day 28, 0.5 h, n=8, MCI/mild AD patients", "value": 12.5, "unit": "ng/mL"},
      {"measurement": "level at 1 h", "setting": "[1]; human, plasma, po, 300 mg, PRI-002 plasma level, Mean, Day 28, 1 h, n=8, MCI/mild AD patients", "value": 8.4, "unit": "ng/mL"},
      {"measurement": "level at 2 h", "setting": "[1]; human, plasma, po, 300 mg, PRI-002 plasma level, Mean, Day 28, 2 h, n=8, MCI/mild AD patients", "value": 6.1, "unit": "ng/mL"},
      {"measurement": "level at 4 h", "setting": "[1]; human, plasma, po, 300 mg, PRI-002 plasma level, Mean, Day 28, 4 h, n=8, MCI/mild AD patients", "value": 4.6, "unit": "ng/mL"},
      {"measurement": "Tmax", "setting": "[1]; human, plasma, po, 300 mg, Tmax, plasma, Day 1 (n=9), Mean ± SD, MCI/mild AD patients", "value": "1.94 ± 1.61", "unit": "h"},
      {"measurement": "Tmax", "setting": "[1]; human, plasma, po, 300 mg, Tmax, plasma, Day 1 (n=9), Median, MCI/mild AD patients", "value": 1, "unit": "h"},
      {"measurement": "Tmax", "setting": "[1]; human, plasma, po, 300 mg, Tmax, plasma, Day 28 (n=8), Mean ± SD, MCI/mild AD patients", "value": "1.1 ± 1.3", "unit": "h"},
      {"measurement": "AUC 0-4 (Day28/Day1), mean systemic drug increase", "setting": "[1]; n=8, Mean ± SD, MCI/mild AD patients", "value": "2.5 ± 1.3", "unit": "fold"},
      {"measurement": "AUC 0-4 hours", "setting": "[1]; [3]", "value": 22.0, "unit": "ng·h/mL"},
      {"measurement": "Cmax", "setting": "[1]; [3]", "value": 10.4, "unit": "ng/mL"},
      {"measurement": "Tmax", "setting": "[1]; [3]", "value": 4.0, "unit": "h"},
      {"measurement": "AUC 0-4 hours", "setting": "[1]; [4]", "value": "10 ± 7.5", "unit": "ng·h/mL"},
      {"measurement": "Tmax", "setting": "[1]; [4]", "value": "about 2 h"},
      {"measurement": "AUC 0-4 hours", "setting": "[1]; [5]", "value": 2.0, "unit": "ng·h/mL"},
      {"measurement": "Cmax", "setting": "[1]; [5]", "value": 0.7, "unit": "ng/mL"},
      {"measurement": "AUC 0-4 hours", "setting": "[1]; [6]", "value": 70.9, "unit": "ng·h/mL"},
      {"measurement": "Tmax", "setting": "[1]; [6]", "value": 4.0, "unit": "h"},
      {"measurement": "Tmax", "setting": "[1]; plasma, Day 28 (n=8), Mean ± SD, MCI/mild AD patients", "value": "~1", "unit": "h"},
      {"measurement": "AUC 0-4 hours", "setting": "[1]; plasma, Day 28 (n=8), Min, MCI/mild AD patients", "value": 5.9, "unit": "ng·h/mL"},
      {"measurement": "tolerability", "setting": "[2]; n=9", "value": "well tolerated"},
      {"measurement": "SAEs or deaths during the trial", "setting": "[2]; n=9, Day 1-56", "value": "No SAEs or deaths; also recorded: No SAEs"},
      {"measurement": "AEs probably or possibly related to study treatment, number", "setting": "[2]; Mild (grade 1), n=9", "value": 4},
      {"measurement": "AEs probably or possibly related to study treatment, number", "setting": "[2]; Moderate (grade 2), n=9", "value": 2},
      {"measurement": "AEs probably or possibly related to study treatment, number", "setting": "[2]; Severe (grade 3), n=9", "value": 0},
      {"measurement": "Gastrointestinal disorders, number of AEs", "setting": "[2]; TOTAL, all grades, n=9", "value": 1},
      {"measurement": "Injury, poisoning and procedural complications, number of AEs", "setting": "[2]; TOTAL, all grades, n=9", "value": 1},
      {"measurement": "Musculoskeletal and connective tissue disorders, number of AEs", "setting": "[2]; TOTAL, all grades, n=9", "value": 1},
      {"measurement": "Gastrointestinal disorders, number of AEs", "setting": "[2]; grade 1 (Mild), n=9", "value": 1},
      {"measurement": "Injury, poisoning and procedural complications, number of AEs", "setting": "[2]; grade 1 (Mild), n=9", "value": 1},
      {"measurement": "Musculoskeletal and connective tissue disorders, number of AEs", "setting": "[2]; grade 1 (Mild), n=9", "value": 1},
      {"measurement": "Nervous system disorders, number of AEs", "setting": "[2]; grade 1 (Mild), n=9", "value": 5},
      {"measurement": "Number of subjects with at least one AE", "setting": "[2]; grade 1 (Mild), n=9", "value": 4},
      {"measurement": "Psychiatric disorders, number of AEs", "setting": "[2]; grade 1 (Mild), n=9", "value": 3},
      {"measurement": "Total number of AEs", "setting": "[2]; grade 1 (Mild), n=9", "value": 14},
      {"measurement": "Nervous system disorders, number of AEs", "setting": "[2]; grade 2 (Moderate), n=9", "value": 2},
      {"measurement": "Number of subjects with at least one AE", "setting": "[2]; grade 2 (Moderate), n=9", "value": 1},
      {"measurement": "Number of subjects with at least one AE", "setting": "[2]; grade 3 (Severe), n=9", "value": 0},
      {"measurement": "Total number of AEs", "setting": "[2]; grade 3 (Severe), n=9", "value": 0},
      {"measurement": "subjects with one or more AEs", "setting": "[2]; safety population, n=9", "value": 56, "unit": "%"}
    ]}
  ]
}
